Values joined by “and” are separate entries in the source; they are usually repeats but may differ in a detail not shown here. Equal entries are not always repeated. Values belong to the molecule of their own block, whether it stands above or below them. Bridge positions count the residues as written; N and C are the ends. Square brackets hold non-standard residues; d marks the D form. Peptide text beside a SMILES is read from it. * marks the point of attachment. ξ: configuration not given here. Abu(4-SO3H) = N[C@@H](CCS(=O)(=O)O)C(=O)O; PhLac = O=C(O)[C@@H](O)Cc1ccccc1; ξPhLac = O=C(O)C(O)Cc1ccccc1; Carboxymethyl = O=C(O)C*; CH2CH2COOH = O=C(O)CC*
Molecular target: Glucagon Receptor (Homo sapiens, UniProt P47871)
Sequence (P47871 26-477): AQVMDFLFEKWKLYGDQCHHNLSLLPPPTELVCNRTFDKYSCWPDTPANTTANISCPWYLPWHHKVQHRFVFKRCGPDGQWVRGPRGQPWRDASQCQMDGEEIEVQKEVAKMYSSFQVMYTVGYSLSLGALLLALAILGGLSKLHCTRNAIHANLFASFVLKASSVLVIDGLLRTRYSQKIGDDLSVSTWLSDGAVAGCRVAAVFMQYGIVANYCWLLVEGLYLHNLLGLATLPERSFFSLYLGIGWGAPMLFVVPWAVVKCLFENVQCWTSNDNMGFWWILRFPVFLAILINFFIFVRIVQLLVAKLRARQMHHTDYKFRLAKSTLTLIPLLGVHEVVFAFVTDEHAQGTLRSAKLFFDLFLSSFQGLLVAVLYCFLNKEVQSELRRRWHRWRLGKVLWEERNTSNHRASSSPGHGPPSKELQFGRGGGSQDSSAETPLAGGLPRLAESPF
Experiment: cAMP inhibition: antagonism of glucagon-induced cAMP at glucagon receptor
Assay type: cell-based
Design: expressed in transfected cells; host or cells: HEK293
Conditions: for cAMP pA2: Table 9
[1] = Glucagon antagonism IC50 (nM, inhibit 0.2-0.8 nM glucagon), Table 18

cAMP pA2: 6.68 ± 1.05
Structure (SMILES): CSCC[C@H](NC(=O)[C@H](CC(C)C)NC(=O)[C@H](Cc1c[nH]c2ccccc12)NC(=O)[C@H](CCC(N)=O)NC(=O)[C@@H](NC(=O)[C@H](Cc1ccccc1)NC(=O)[C@H](CC(=O)O)NC(=O)[C@H](CCC(N)=O)NC(=O)[C@H](C)NC(=O)[C@H](CCCNC(=N)N)NC(=O)[C@H](CCCNC(=N)N)NC(=O)[C@H](CO)NC(=O)[C@H](CC(=O)O)NC(=O)[C@H](CC(C)C)NC(=O)[C@H](Cc1ccc(O)cc1)NC(=O)[C@H](CCCCN)NC(=O)[C@H](CO)NC(=O)[C@H](Cc1ccc(O)cc1)NC(=O)[C@H](CSCC(=O)O)NC(=O)[C@H](CO)NC(=O)[C@@H](NC(=O)[C@@H](N)Cc1ccccc1)[C@@H](C)O)C(C)C)C(=O)N[C@@H](CC(N)=O)C(=O)N[C@H](C(N)=O)[C@@H](C)O [[(CSA-1)^9]Glucagon(aa6-29)-NH2, [C^9(SCH2COOH)]Glucagon(aa6-29)-NH2] (H-FTSC(Carboxymethyl)YSKYLDSRRAQDFVQWLMNT-NH2; N-terminus assumed)

cAMP pA2: 6.64 ± 0.29
Structure (SMILES): CSCC[C@H](NC(=O)[C@H](CC(C)C)NC(=O)[C@H](Cc1c[nH]c2ccccc12)NC(=O)[C@H](CCC(N)=O)NC(=O)[C@@H](NC(=O)[C@H](Cc1ccccc1)NC(=O)[C@H](CC(=O)O)NC(=O)[C@H](CCC(N)=O)NC(=O)[C@H](C)NC(=O)[C@H](CCCNC(=N)N)NC(=O)[C@H](CCCNC(=N)N)NC(=O)[C@H](CO)NC(=O)[C@H](CC(=O)O)NC(=O)[C@H](CC(C)C)NC(=O)[C@H](Cc1ccc(O)cc1)NC(=O)[C@H](CCCCN)NC(=O)[C@H](CO)NC(=O)[C@H](Cc1ccc(O)cc1)NC(=O)[C@H](CSCCC(=O)O)NC(=O)[C@H](CO)NC(=O)[C@@H](NC(=O)[C@@H](N)Cc1ccccc1)[C@@H](C)O)C(C)C)C(=O)N[C@@H](CC(N)=O)C(=O)N[C@H](C(N)=O)[C@@H](C)O [[(CSA-2)^9]Glucagon(aa6-29)-NH2, [C^9(SCH2CH2COOH)]Glucagon(aa6-29)-NH2] (H-FTSC(CH2CH2COOH)YSKYLDSRRAQDFVQWLMNT-NH2; N-terminus assumed)

IC50 [1]: 423 nM
character of antagonism (partial antagonist, wrapped cell) (Table 18): partial
Structure (SMILES): CC[C@H](C)[C@H](NC(=O)[C@H](Cc1ccccc1)NC(=O)[C@H](CCC(=O)O)NC(=O)[C@@H]1CCCCNC(=O)CC[C@H](NC(=O)[C@H](CC(=O)O)NC(=O)[C@H](CC(C)C)NC(=O)[C@H](Cc2ccc(O)cc2)NC(=O)[C@H](CCCCN)NC(=O)[C@H](CO)NC(=O)[C@H](Cc2ccc(O)cc2)NC(=O)[C@H](CCC(=O)O)NC(=O)[C@H](CO)NC(=O)[C@@H](NC(=O)[C@H](Cc2ccccc2)NC(=O)[C@@H](NC(=O)CNC(=O)[C@H](CCC(=O)O)NC(=O)[C@H](C)N)[C@@H](C)O)[C@@H](C)O)C(=O)N[C@@H](CCC(N)=O)C(=O)N[C@@H](C)C(=O)N[C@@H](C)C(=O)N1)C(=O)N[C@@H](C)C(=O)N[C@@H](Cc1c[nH]c2ccccc12)C(=O)N[C@@H](CC(C)C)C(=O)N[C@@H](CCSC)C(=O)N[C@@H](CC(=O)O)C(=O)N[C@H](C(N)=O)[C@@H](C)O [[A2E3, E9, E16K20(Lactam), GLP(23-32)]G(2-29)] (H-AEGTFTSEYSKYLDEQAAKEFIAWLMDT-NH2; lactam 15-19; N-terminus assumed)

IC50 [1]: 63.2 ± 2.3 nM
Structure (SMILES): CSCC[C@H](NC(=O)[C@H](CC(C)C)NC(=O)[C@H](Cc1c[nH]c2ccccc12)NC(=O)[C@H](CCC(N)=O)NC(=O)[C@@H](NC(=O)[C@H](Cc1ccccc1)NC(=O)[C@H](CC(=O)O)NC(=O)[C@@H]1CCCCNC(=O)CC[C@H](NC(=O)[C@H](CC(=O)O)NC(=O)[C@H](CC(C)C)NC(=O)[C@H](Cc2ccc(O)cc2)NC(=O)[C@H](CCCCN)NC(=O)[C@H](CO)NC(=O)[C@H](Cc2ccc(O)cc2)NC(=O)[C@H](CCC(=O)O)NC(=O)[C@H](CO)NC(=O)[C@@H](NC(=O)[C@H](Cc2ccccc2)NC(=O)[C@@H](NC(=O)CNC(=O)[C@H](CCC(=O)O)NC(=O)[C@H](C)N)[C@@H](C)O)[C@@H](C)O)C(=O)N[C@@H](CCCNC(=N)N)C(=O)N[C@@H](CCCNC(=N)N)C(=O)N[C@@H](C)C(=O)N1)C(C)C)C(=O)N[C@@H](CC(=O)O)C(=O)N[C@H](C(N)=O)[C@@H](C)O [[A2E3, E16K20(Lactam),D28]G(2 ~ 29)]

Structure (SMILES): CSCC[C@H](NC(=O)[C@H](CC(C)C)NC(=O)[C@H](Cc1c[nH]c2ccccc12)NC(=O)[C@H](CCC(N)=O)NC(=O)[C@@H](NC(=O)[C@H](Cc1ccccc1)NC(=O)[C@H](CC(=O)O)NC(=O)[C@@H]1CCCCNC(=O)CC[C@H](NC(=O)[C@H](CC(=O)O)NC(=O)[C@H](CC(C)C)NC(=O)[C@H](Cc2ccc(O)cc2)NC(=O)[C@H](CCCCN)NC(=O)[C@H](CO)NC(=O)[C@H](Cc2ccc(O)cc2)NC(=O)[C@H](CCC(=O)O)NC(=O)[C@H](CO)NC(=O)[C@@H](NC(=O)[C@@H](O)Cc2ccccc2)[C@@H](C)O)C(=O)N[C@@H](CCCNC(=N)N)C(=O)N[C@@H](CCCNC(=N)N)C(=O)N[C@@H](C)C(=O)N1)C(C)C)C(=O)N[C@@H](CC(N)=O)C(=O)N[C@H](C(=O)NCC(=O)N1CCC[C@H]1C(=O)N[C@@H](CO)C(=O)N[C@@H](CO)C(=O)NCC(=O)N[C@@H](C)C(=O)N1CCC[C@H]1C(=O)N1CCC[C@H]1C(=O)N1CCC[C@H]1C(=O)N[C@@H](CO)C(N)=O)[C@@H](C)O [[PLA6, E9, E16K20(Lactam)]]
IC50 (Glucagon antagonism IC50 (nM, inhibit 0.2-0.8 nM glucagon), Table 16, combined results of three assays): 20.5 ± 2.5 nM

IC50 [1]: 11.7 nM and 73.5 nM
Structure (SMILES): CC[C@H](C)[C@H](NC(=O)[C@H](Cc1ccccc1)NC(=O)[C@H](CCC(=O)O)NC(=O)[C@@H]1CCCCNC(=O)CC[C@H](NC(=O)[C@H](CC(=O)O)NC(=O)[C@H](CC(C)C)NC(=O)[C@H](Cc2ccc(O)cc2)NC(=O)[C@H](CCCCN)NC(=O)[C@H](CO)NC(=O)[C@H](Cc2ccc(O)cc2)NC(=O)[C@H](CC(=O)O)NC(=O)[C@H](CO)NC(=O)[C@@H](NC(=O)C(O)Cc2ccccc2)[C@@H](C)O)C(=O)N[C@@H](CCC(N)=O)C(=O)N[C@@H](C)C(=O)N[C@@H](C)C(=O)N1)C(=O)N[C@@H](C)C(=O)N[C@@H](Cc1c[nH]c2ccccc12)C(=O)N[C@@H](CC(C)C)C(=O)N[C@@H](CCSC)C(=O)N[C@@H](CC(=O)O)C(=O)N[C@H](C(N)=O)[C@@H](C)O (stereo partly shown) [[PLA6, E16K20(lactam), GLP(23-32)]G(6-29)] (H-[ξPhLac]TSDYSKYLDEQAAKEFIAWLMDT-NH2; lactam 11-15)

IC50 (Glucagon antagonism IC50(nM, inhibit 0.5nM G), Table 25): 14.2 ± 7.89 nM
Structure (SMILES): CSCC[C@H](NC(=O)[C@H](CC(C)C)NC(=O)[C@H](Cc1c[nH]c2ccccc12)NC(=O)[C@H](CCC(N)=O)NC(=O)[C@@H](NC(=O)[C@H](Cc1ccccc1)NC(=O)[C@H](CC(=O)O)NC(=O)[C@H](CCC(N)=O)NC(=O)[C@H](C)NC(=O)[C@H](CCCNC(=N)N)NC(=O)[C@H](CCCNC(=N)N)NC(=O)[C@H](CO)NC(=O)[C@H](CC(=O)O)NC(=O)[C@H](CC(C)C)NC(=O)[C@H](Cc1ccc(O)cc1)NC(=O)[C@H](CCCCN)NC(=O)[C@H](CO)NC(=O)[C@H](Cc1ccc(O)cc1)NC(=O)[C@H](CCC(=O)O)NC(=O)[C@H](CO)NC(=O)[C@@H](NC(=O)[C@H](Cc1ccccc1)OC(=O)[C@@H](NC(=O)CNC(=O)[C@H](CCC(N)=O)NC(=O)[C@H](CO)NC(=O)[C@@H](N)Cc1c[nH]cn1)[C@@H](C)O)[C@@H](C)O)C(C)C)C(=O)N[C@@H](CC(N)=O)C(=O)N[C@H](C(N)=O)[C@@H](C)O [[Thr5-O-PLA6,E9]Glucagon(1-29)] (H-HSQGT[PhLac]TSEYSKYLDSRRAQDFVQWLMNT-NH2; N-terminus assumed)

glucagon antagonism, in words: some level of antagonism
Structure (SMILES): CC(C)C[C@H](NC(=O)[C@H](Cc1ccc(O)cc1)NC(=O)[C@H](CCCCN)NC(=O)[C@H](CO)NC(=O)[C@H](Cc1ccc(O)cc1)NC(=O)[C@H](CCS(=O)(=O)O)NC(=O)[C@H](CO)NC(=O)[C@@H](NC(=O)[C@H](Cc1ccccc1)NC(=O)[C@@H](NC(=O)[C@H](CC(C)C)NC(=O)[C@H](CCC(N)=O)NC(=O)[C@@H](N)CO)[C@@H](C)O)[C@@H](C)O)C(=O)N[C@@H](CC(=O)O)C(=O)N[C@@H](CO)C(=O)N[C@@H](CCCNC(=N)N)C(=O)N[C@@H](CCCNC(=N)N)C(=O)N[C@@H](C)C(=O)N[C@@H](CCC(N)=O)C(=O)N[C@@H](CC(=O)O)C(=O)N[C@@H](Cc1ccccc1)C(=O)N[C@H](C(=O)N[C@@H](CCC(N)=O)C(=O)N[C@@H](Cc1ccccc1)C(=O)N[C@@H](CC(C)C)C(=O)N[C@@H](CC(C)C)C(=O)N[C@@H](CC(N)=O)C(=O)N[C@H](C(N)=O)[C@@H](C)O)C(C)C [[desHis^1, Leu^4, hCys^9(SO3−), Phe^25, Leu^27] Glucagon-NH2] (H-SQLTFTS[Abu(4-SO3H)]YSKYLDSRRAQDFVQFLLNT-NH2; N-terminus assumed)

glucagon antagonism, in words: some level of antagonism
Structure (SMILES): CC(C)C[C@H](NC(=O)[C@H](Cc1ccc(O)cc1)NC(=O)[C@H](CCCCN)NC(=O)[C@H](CO)NC(=O)[C@H](Cc1ccc(O)cc1)NC(=O)[C@H](CCS(=O)(=O)O)NC(=O)[C@H](CO)NC(=O)[C@@H](NC(=O)[C@@H](NC(=O)CNC(=O)[C@H](CCC(N)=O)NC(=O)[C@@H](N)CO)[C@@H](C)O)[C@@H](C)O)C(=O)N[C@@H](CC(=O)O)C(=O)N[C@@H](CO)C(=O)N[C@@H](CCCNC(=N)N)C(=O)N[C@@H](CCCNC(=N)N)C(=O)N[C@@H](C)C(=O)N[C@@H](CCC(N)=O)C(=O)N[C@@H](CC(=O)O)C(=O)N[C@@H](Cc1ccccc1)C(=O)N[C@H](C(=O)N[C@@H](CCC(N)=O)C(=O)N[C@@H](Cc1ccccc1)C(=O)N[C@@H](CC(C)C)C(=O)N[C@@H](CC(C)C)C(=O)N[C@@H](CC(N)=O)C(=O)N[C@H](C(N)=O)[C@@H](C)O)C(C)C [[desHis^1, desPhe^6, hCys^9(SO3−), Phe^25, Leu^27] Glucagon-NH2] (H-SQGTTS[Abu(4-SO3H)]YSKYLDSRRAQDFVQFLLNT-NH2; N-terminus assumed)

Reference: US8980830B2 (priority 2007, dated 2015)
